Measurements reported in patent US8871435B2, “Methods and compositions for identifying agents that inhibit an NS4B-mediated neoplastic cellular phenotype of HCV infected cells” (The Board of Trustees of the Leland Stanford Junior …, priority 2007, dated 2014).

Biological target: NS4B-GFP (Hepatitis C virus genotype 1b, UniProt Q9WMX2)
Format: binding, hepatitis C virus (HCV)

Chain of NS4B-GFP (Q9WMX2 1712-1972): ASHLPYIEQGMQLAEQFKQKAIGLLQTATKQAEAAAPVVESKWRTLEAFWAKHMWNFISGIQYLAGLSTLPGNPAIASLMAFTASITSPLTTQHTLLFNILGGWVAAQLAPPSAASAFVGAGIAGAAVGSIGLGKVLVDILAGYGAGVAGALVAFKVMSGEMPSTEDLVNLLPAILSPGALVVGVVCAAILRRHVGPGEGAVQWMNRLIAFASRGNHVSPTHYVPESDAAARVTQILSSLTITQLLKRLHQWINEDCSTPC

SMILES	labeling (binding) of NS4B-GFP by 32P-labeled photoactivatable nucleotide analog	binding of labeled GTP in the presence of cold competitor nucleotide
[N-]=[N+]=Nc1ccc(NP(=O)(O)OP(=O)(O)OP(=O)(O)OC[C@H]2O[C@@H](n3cnc4c(N)ncnc43)[C@H](O)[C@@H]2O)cc1 [ATP, ATP-γ-4-azidoanilide]	significantly less efficient than GTP binding	
[N-]=[N+]=Nc1ccc(NP(=O)(O)OP(=O)(O)OP(=O)(O)OC[C@H]2O[C@@H](n3cnc4c(=O)[nH]c(N)nc43)[C@H](O)[C@@H]2O)cc1 [GTP, GTP-γ-4-azidoanilide]	specifically labeled	
Nc1nc2c(ncn2[C@@H]2O[C@H](COP(=O)(O)OP(=O)(O)OP(O)(O)=S)[C@@H](O)[C@H]2O)c(=O)[nH]1 [GTPγS]		progressively decreased
